Measured values as given in patent US9944591B2, “Active compound and related composition for dermatological use in the pharmaceutical or cosmetic field” (GIULIANI S.P.A., priority 2014, dated 2018).

Tests used:
[1] = system: ROS (reactive oxygen species); assay: Production of ROS by DCFH-DA assay (H2O2-induced oxidative stress); format: cell-based, human
[2] = system: HAS1 (Hyaluronan Synthase 1); assay: Gene expression of HAS1 (hyaluronan synthase 1) on fibroblasts (qRT-PCR); format: cell-based; conditions: BALB3T3 mouse fibroblasts, 24 h, 2.5 and 5 μM, FIG. 4
Experimental: In this third test, the mouse fibroblast cell line Balb 3T3 Clone A31 (ATCC CCL-163™) (Aaronson and Todaro, 1968) was used, cultured in sterile flasks ([…]), incubated at 37° C. in a humid atmosphere at 5% CO2 in DMEM (Dulbecco's Modified Eagle's Medium) added with 10% bovine fetal serum (CBS), 1% non-essential amino acids, in the presence of 1% penicillin and streptomycin.
The 1:3 split is done every 2 days upon achieving the monolayer by washing with 1×PBS (phosphate buffer without Ca^2+ and Mg^2+) and detachment of cells with a trypsin-EDTA solution at 37° C. for 2 minutes. […]
Gene expression of HAS1 in BALB3T3 cells was evaluated by relative quantitative RT-PCR (quantitative reverse transcription-polymerase chain reaction-qRT-PCR). […]
At the end of incubation with the active compounds of interest, cells were washed with PBS (1×) and finally subjected to RNA extraction procedure. At the end of the extraction, using a spectrophotometer (Jenway UV/VIS MOD: 6715, BS-6715B0), concentrations were calculated in μg/mL of total RNA extracted at a wavelength of 260 nm.
(§1) Finally, the integrity of RNA (2 μg/mL) was assessed by means of an electrophoresis run on 1% agarose gel. […]
(§2) Extracted and quantified RNA was diluted to a concentration of 2 μg/mL and reverse transcribed into cDNA. […]
The Taqman probe is a type of probe that allows the development of fluorescence as the amplification advances. […]

TNF-α = assay: Anti-inflammatory effects through gene expression of TNF-alpha on keratinocytes (qRT-PCR); format: cell-based; conditions: human keratinocytes NCTC 2544, 5 μM, 24 h, LPS 5 μg/ml; FIG. 3
Experimental: In such further test, an immortalized line of human keratinocytes NCTC 2544 is used (Perry V. P. et al., 1957) cultured in sterile flasks ([…]), incubated at 37° C. in a humid atmosphere at 5% CO2 in culture medium MEM (Minimum Essential Medium) supplemented with 10% fetal bovine serum (FBS), 2 mM glutamine, 1% non-essential amino acids, in the presence of 1% penicillin and streptomycin.
When the cells (human keratinocytes NCTC 2544) reached about 80% confluence, they were detached with trypsin/EDTA and seeded at a density of 1×10^6 cells/ml in 12-well plates and incubated at 37° C., 5% CO2 (24 h). […]
The effect of the compounds object of the study on the gene expression of TNF-α was evaluated by quantitative RT-PCR (quantitative reverse transcription-polymerasechainreaction-qRT-PCR). […]
Using a spectrophotometer (Jenway UV/VIS MOD: 6715, BS-6715B0), concentrations were calculated in μg/mL of total RNA extracted at a wavelength of 260 nm.
as §1, §2

C/C=C/C=C/C=C/C(=O)NCCCC(=O)O [compound of the invention, 4-((2E,4E,6E)-octa-2,4,6-trienamid)butanoic acid]
% ROS produced/Ctr, compared to GABA ([1]; human keratinocytes NCTC2544, 0.5 μM, versus comparison compound GABA at same concentration, FIG. 2): superior antioxidant activity
% ROS produced/Ctr (antioxidant activity) ([1]; human keratinocytes NCTC2544, 16 h pre-treatment at 0.5 μM, 1 μM, 5 μM, then 1 mM H2O2 90 min, FIG. 1): antioxidant activity
gene expression of HAS1 compared to reference compound GABA ([2]; versus GABA): higher than the reference compound at both concentrations tested
gene expression of HAS1 (2^−ΔΔCt) [2]: increased gene expression of HAS1
gene expression of TNF-α (2-ΔΔCt) compared to positive control (TNF-α): reduced expression of TNF-α
